Measured values: publication PMC10500703 (Journal of medicinal chemistry, 2021)

Columns and labels:
Type in all cases: cell-based, Mycobacterium tuberculosis
Mtb EthA C253R = test system: Mtb EthA C253R
Mtb ∆cyd = test system: Mtb ∆cyd
[1] = test system: Mtb InhA-OE (H37Rv-LP:fabG1/inhA-c-15t)

## CCc1cc(C(N)=S)ccn1 [ETH, Ethionamide]
Mtb EthA C253R
  MIC: >125 µM

## 3-(1,3-bis(4-chlorophenyl)-1H-pyrazol-5-yl)-N-(methylsulfonyl)propanamide [Compound 8]
Mtb ∆cyd
  MIC: 4 µM
[1]
  MIC: 0.24 µM
